Results: patent US4346087A, “Antibacterial surface active agent containing azaalkenelactam” (priority 1979, dated 1982)
Converted amounts (≈) assume the structure as drawn. Where two headings read alike, the source gives them in different places.

Assays:
Type in all cases: cell-based
Escherichia coli NIHJ = experiment: MIC against Escherichia coli NIHJ
Source text: (§1) Below are described the antibacterial activities of the compounds in the compositions according to this invention.
(§2) The testing method complied with the standard method of Japan Sociaty of Chemotherapy.

[1] = tested on: Staphylococcus aureus FDA 209P; experiment: MIC against Staphylococcus aureus FDA 209P
Source text: as §1, §2

[2] = tested on: Desulfovibrio desulfuricans IFO 13699; experiment: MIC against Desulfovibrio desulfuricans
Source text: as §1, §2

[3] = Escherichia coli, Table 1, azaalkenelactams, heart infusion agar, 37° C., 24 hours, read-out: MIC
[4] = Staphylococcus aureus, FDA209P, Table 1, azaalkenelactams, heart infusion agar, 37° C., 24 hours, read-out: MIC
[5] = Desulfovibrio desulfuricans, IFO13699, 24 h
[6] = Staphylococcus aureus, FDA209P, 24 h
[7] = Table 1, azaalkenelactams, heart infusion agar, 37° C., 24 hours
[8] = Desulfovibrio desulfuricans, IFO13699, Table 1, azaalkenelactams, heart infusion agar, 37° C., 24 hours, read-out: MIC

Row | SMILES | MIC (Escherichia coli NIHJ; [3]) | MIC [2, 5] | MIC [1, 6] | MIC (Escherichia coli NIHJ; Escherichia coli, 24 h) | also measured
1 | CCCCCCCCCCCCN1CCN=C(C)CC1=O [Example 1, 4-dodecyl-7-methyl-3,6-dihydro-2H-1,4-diazepin-5-one] | 1600 µg/mL (≈ 5430 µM) | 6.25 µg/mL (≈ 21.2 µM) |  |  | MIC [1, 4]: 50 µg/mL (≈ 170 µM)
2 | CCCCCCCCCCCCN1CCCN=C(C)CC1=O [Example 3, 1-dodecyl-4-methyl-3,6,7,8-tetrahydro-1,5-diazocin-2-one] | 1600 µg/mL (≈ 5190 µM) | 6.25 µg/mL (≈ 20.3 µM) | 50 µg/mL (≈ 162 µM) |  | 
3 | CCCCCCCCC=CCCCCCCCCN1CCCN=C(C)CC1=O [Example 4, 1-(9-octadecenyl)-4-methyl-3,6,7,8-tetrahydro-1,5-diazocin-2-one] | 800 µg/mL (≈ 2050 µM) | 12.5 µg/mL (≈ 32 µM) | 25 µg/mL (≈ 64 µM) |  | 
4 | CCCCCCCCCCCCCCCCN1CCN=C(C)CC1=O [Example 5, 4-hexadecyl-7-methyl-3,6-dihydro-2H-1,4-diazepin-5-one] | 3200 µg/mL (≈ 9130 µM) | 6.25 µg/mL (≈ 17.8 µM) | 12.5 µg/mL (≈ 35.7 µM) |  | 
5 | CCCCCCCCCCCCOCCNCCN1CCN=C(C)CC1=O [Example 6, 4-dodecoxyethylaminoethyl-7-methyl-3,6-dihydro-2H-1,4-diazepin-5-one] |  | 25 µg/mL (≈ 65.5 µM) | 12.5 µg/mL (≈ 32.8 µM) | 50 µg/mL (≈ 131 µM) | 
6 | CCCCCCCCCc1ccc(OCCOCCN2CCCN=C(C)CC2=O)cc1 [Example 7, 1-nonylphenylpoly(2 moles)oxyethyleneoxyethyl-4-methyl-3,6,7,8-tetrahydro-1,5-diazocin-2-one] |  | 12.5 µg/mL (≈ 29 µM) | 12.5 µg/mL (≈ 29 µM) | 200 µg/mL (≈ 464 µM) | 
7 | CCCCCCCCOCCCN1CCN=C(C)CC1=O [Example 8, 4-octoxypropyl-7-methyl-3,6-dihydro-2H-1,4-diazepin-5-one] | 800 µg/mL (≈ 2700 µM) | 50 µg/mL (≈ 169 µM) | 50 µg/mL (≈ 169 µM) |  | 
8 | CCCCCCCC/C=C\CCCCCCCC(=O)NCCN1CCN=C(C)CC1=O [Example 10, 4-oleamidoethyl-7-methyl-3,6-dihydro-2H-1,4-diazepin-5-one] | 1600 µg/mL (≈ 3690 µM) | 6.25 µg/mL (≈ 14.4 µM) | 50 µg/mL (≈ 115 µM) |  | 
9 | CC1=NCCN(CCNC(=O)CCCCCCCCCCCCCCC(C)C)C(=O)C1 [Example 11, 4-isostearamidoethyl-7-methyl-3,6-dihydro-2H-1,4-diazepin-5-one] | 1600 µg/mL (≈ 3670 µM) | 6.25 µg/mL (≈ 14.3 µM) | 100 µg/mL (≈ 230 µM) |  | 
10 | CCCCCCCCCCCC(=O)OCCN1CCN=C(C)CC1=O [Example 12, 4-lauroyloxyethyl-7-methyl-3,6-dihydro-2H-1,4-diazepin-5-one] | 1600 µg/mL (≈ 4540 µM) | 12.5 µg/mL (≈ 35.5 µM) | 100 µg/mL (≈ 284 µM) |  | 
11 | CCCCCCCC/C=C\CCCCCCCC(=O)OCCN1CCN=C(C)CC1=O [Example 13, 4-oleoyloxyethyl-7-methyl-3,6-dihydro-2H-1,4-diazepin-5-one] | 1600 µg/mL (≈ 3680 µM) | 12.5 µg/mL (≈ 28.8 µM) | 100 µg/mL (≈ 230 µM) |  | 
12 | CCCCCCCCCCCC(=O)OCCN1CCCN=C(C)CC1=O [Example 14, 1-lauroyloxyethyl-4-methyl-3,6,7,8-tetrahydro-1,5-diazocin-2-one] | 1600 µg/mL (≈ 4370 µM) | 12.5 µg/mL (≈ 34.1 µM) |  |  | MIC [1, 4]: 100 µg/mL (≈ 273 µM)
13 | CCCCCCCCc1ccc(OCCOC(C)COC(C)CN2CCN=C(C)CC2=O)cc1 (stereo not drawn) [Example 19] |  | 25 µg/mL (≈ 52.7 µM) | 50 µg/mL (≈ 105 µM) | 400 µg/mL (≈ 843 µM) | 
14 | CCCCCCC(O)CC=CCCCCCCCC(=O)OC(C)CN1CCCN=C(C)CC1=O (stereo not drawn) [Example 21] | 800 µg/mL (≈ 1670 µM) | 25 µg/mL (≈ 52.2 µM) | 50 µg/mL (≈ 104 µM) |  | 
15 | CCCCCCCCCCCCCCCCCCCCCCNCCN1CCN=C(C)CC1=O [Example 22, 4-docosylaminoethyl-7-methyl-3,6-dihydro-2H-1,4-diazepin-5-one] | 800 µg/mL (≈ 1670 µM) | 12.5 µg/mL (≈ 26.2 µM) | 25 µg/mL (≈ 52.3 µM) |  | 
16 | CCCCCCCC(=O)NCCN1CCN=C(C)CC1=O [Example 23, 4-octamidoethyl-7-methyl-3,6-dihydro-2H-1,4-diazepin-5-one] |  | 50 µg/mL (≈ 169 µM) | 25 µg/mL (≈ 84.6 µM) | 25 µg/mL (≈ 84.6 µM) | 
17 | CCCCCCCC(=O)OCCN1CCN=C(C)CC1=O [Example 24, 4-octoyloxyethyl-7-methyl-3,6-dihydro-2H-1,4-diazepin-5-one] | 800 µg/mL (≈ 2700 µM) | 25 µg/mL (≈ 84.3 µM) | 200 µg/mL (≈ 675 µM) |  | 
18 | CCCCCCCCCCCCCCCCCCCCCC(=O)OCCCN1CCCN=C(C)CC1=O [Example 25, 1-behenoyloxypropyl-4-methyl-3,6,7,8-tetrahydro-1,5-diazocin-2-one] |  |  |  |  | MIC (Escherichia coli NIHJ; [7]): 1600 µg/mL (≈ 3070 µM); MIC [1]: 200 µg/mL (≈ 384 µM); MIC [2]: 50 µg/mL (≈ 96 µM)
19 | CCCCCCCCCCC(O)CN1CCN=C(C)CC1=O (stereo not drawn) [Example 26, 4-(2-hydroxy)dodecyl-7-methyl-3,6-dihydro-2H-1,4-diazepin-5-one] |  | 12.5 µg/mL (≈ 40.3 µM) | 50 µg/mL (≈ 161 µM) | 50 µg/mL (≈ 161 µM) | 
20 | CCCCCCCCCCCCC(O)CN1CCCN=C(C)CC1=O (stereo not drawn) [Example 27, 1-(2-hydroxy)tetradecyl-4-methyl-3,6,7,8-tetrahydro-1,5-diazocin-2-one] |  |  | 12.5 µg/mL (≈ 35.5 µM) | 25 µg/mL (≈ 70.9 µM) | MIC [2, 8]: 6.25 µg/mL (≈ 17.7 µM)

Row | SMILES | MIC (Escherichia coli NIHJ; [3]) | MIC [2, 5] | MIC [1, 6] | MIC (Escherichia coli NIHJ; Escherichia coli, 24 h) | also measured
21 | CCCCCCCCCCCCC(O)CNCCN1CCN=C(C)CC1=O (stereo not drawn) [Example 28, 4-(2-hydroxytetradecyl)aminoethyl-7-methyl-3,6-dihydro-2H-1,4-diazepin-5-one] |  |  | 25 µg/mL (≈ 65.5 µM) | 25 µg/mL (≈ 65.5 µM) | MIC [2, 8]: 12.5 µg/mL (≈ 32.8 µM)
22 | CCCCCCCCCCCCCCCCCCCCC(O)CNCCNCCN1CCCN=C(C)CC1=O (stereo not drawn) [Example 30, 1-(2-hydroxy)docosylaminoethylaminoethyl-4-methyl-3,6,7,8-tetrahydro-1,5-diazocin-2-one] |  |  | 12.5 µg/mL (≈ 22.7 µM) | 25 µg/mL (≈ 45.4 µM) | MIC [2, 8]: 3.12 µg/mL (≈ 5.66 µM)
23 | CCCCCCCCCc1ccc(OCC(O)CNCCNCCNCCN2CCN=C(C)CC2=O)cc1 (stereo not drawn) [Example 32, 4-nonylphenoxy(2-hydroxy)propylaminoethylaminoethylaminoethyl-7-methyl-3,6-dihydro-2H-1,4-diazepin-5-one] | 800 µg/mL (≈ 1500 µM) | 25 µg/mL (≈ 47 µM) | 200 µg/mL (≈ 376 µM) |  | 
24 | CCCCCCCCCCCCOCC(O)CN1CCCN=C(C)CC1=O (stereo not drawn) [Example 33, 1-docoxy(2-hydroxy)propyl-4-methyl-3,6,7,8-tetrahydro-1,5-diazocin-2-one] |  | 25 µg/mL (≈ 65.3 µM) | 25 µg/mL (≈ 65.3 µM) | 400 µg/mL (≈ 1050 µM) | 
25 | CCCCCCCCCCCCNCCCN1CCCN=C(C)CC1=O [Example 36, 1-dodecylaminopropyl-4-methyl-3,6,7,8-tetrahydro-1,5-diazocin-2-one] |  | 25 µg/mL (≈ 68.4 µM) | 12.5 µg/mL (≈ 34.2 µM) | 50 µg/mL (≈ 137 µM) | 
26 | CCCCCCCCCCCCCCCCCCNCCCN1CCCN=C(C)CC1=O [Example 37, 1-octadecylaminopropyl-4-methyl-3,6,7,8-tetrahydro-1,5-diazocin-2-one] |  |  |  |  | MIC (Escherichia coli NIHJ): 25 µg/mL (≈ 55.6 µM); MIC [1]: 6.25 µg/mL (≈ 13.9 µM); MIC [2]: 6.25 µg/mL (≈ 13.9 µM)
27 | CCCCCCCCCCCCNCCNCCNCCCN1CCCN=C(C)CC1=O [Example 38, 1-dodecylaminoethylaminoethylaminopropyl-4-methyl-3,6,7,8-tetrahydro-1,5-diazocin-2-one] |  | 25 µg/mL (≈ 55.3 µM) | 12.5 µg/mL (≈ 27.7 µM) | 50 µg/mL (≈ 111 µM) | 
28 | CC1=NCCN(CC(C)OCC(C)OCC(C)OCc2ccc(C)cc2)C(=O)C1 (stereo not drawn) [Example 39, 4-methylbenzylpoly(2moles)oxypropyleneoxypropyl-7-methyl-3,6-dihydro-2H-1,4-diazepin-5-one] |  | 50 µg/mL (≈ 124 µM) | 25 µg/mL (≈ 61.8 µM) | 200 µg/mL (≈ 494 µM) | 
29 | CCCCCCCCCCCCN1CCN=CC(C)C1=O (stereo not drawn) [Example 42, 4-dodecyl-6-methyl-3,6-dihydro-2H-1,4-diazepin-5-one] |  | 6.25 µg/mL (≈ 21.2 µM) | 12.5 µg/mL (≈ 42.4 µM) | 400 µg/mL (≈ 1360 µM) | 
30 | CCCCCCCCCCC(O)CN1CCN=CC(C)C1=O (stereo not drawn) [Example 43, 4-(2-hydroxy)dodecyl-6-methyl-3,6-dihydro-2H-1,4-diazepin-5-one] |  | 12.5 µg/mL (≈ 40.3 µM) | 12.5 µg/mL (≈ 40.3 µM) | 400 µg/mL (≈ 1290 µM) | 
31 | CCCCCCCCCCCCN1CCCN=CC(C)C1=O (stereo not drawn) [Example 44, 1-dodecyl-3-methyl-3,6,7,8-tetrahydro-1,5-diazocin-2-one] | 800 µg/mL (≈ 2590 µM) | 25 µg/mL (≈ 81 µM) | 50 µg/mL (≈ 162 µM) |  | 
32 | CCCCCCCCCCC(O)CN1CCCN=CC(C)C1=O (stereo not drawn) [Example 45, 1-(2-hydroxy)dodecyl-3-methyl-3,6,7,8-tetrahydro-1,5-diazocin-2-one] |  |  |  |  | MIC (Escherichia coli NIHJ; [7]): 800 µg/mL (≈ 2470 µM); MIC [1, 7]: 100 µg/mL (≈ 308 µM); MIC [2, 7]: 50 µg/mL (≈ 154 µM)
33 | CCCCCCCCCCCC(=O)NCCN1CCN=CC(C)C1=O (stereo not drawn) [Example 46, 4-lauramidoethyl-6-methyl-3,6-dihydro-2H-1,4-diazepin-5-one] |  | 6.25 µg/mL (≈ 17.8 µM) | 6.25 µg/mL (≈ 17.8 µM) | 25 µg/mL (≈ 71.1 µM) | 
34 | CCCCCCCCCCCC(=O)OCCN1CCN=CC(C)C1=O (stereo not drawn) [Example 47, 4-lauroyloxyethyl-6-methyl-3,6-dihydro-2H-1,4-diazepin-5-one] | 200 µg/mL (≈ 567 µM) |  |  |  | MIC [1, 4]: 50 µg/mL (≈ 142 µM); MIC [2, 8]: 50 µg/mL (≈ 142 µM)
35 | CCCCCCCCCCCCCCCCCCCCCC(=O)OCCCN1CCCN=CC(C)C1=O (stereo not drawn) [Example 51, 1-behenoyloxypropyl-3-methyl-3,6,7,8-tetrahydro-1,5-diazocin-2-one] |  |  |  |  | MIC (Escherichia coli NIHJ; [7]): 100 µg/mL (≈ 192 µM); MIC [1, 7]: 25 µg/mL (≈ 48 µM); MIC [2]: 12.5 µg/mL (≈ 24 µM)
36 | CCCCCCCCCc1ccc(OCC(O)CNCCNCCNCCN2CCN=CC(C)C2=O)cc1 (stereo not drawn) [Example 52, 4-nonylphenoxy(2-hydroxy)propylaminoethylaminoethylaminoethyl-6-methyl-3,6-dihydro-2H-1,4-diazepin-5-one] | 100 µg/mL (≈ 188 µM) | 50 µg/mL (≈ 94 µM) |  |  | MIC [1, 4]: 100 µg/mL (≈ 188 µM)
37 | CCCCCCCCC=CCCCCCCCCN1CCN=CCCC1=O [Example 55, 4-(9-octadecenyl)-2,3,6,7-tetrahydro-1,4-diazocin-5-one] |  | 50 µg/mL (≈ 133 µM) | 100 µg/mL (≈ 266 µM) | 200 µg/mL (≈ 531 µM) | 
38 | CCCCCCCC(=O)NCCN1CCN=CCCC1=O [Example 56, 4-octamidoethyl-2,3,6,7-tetrahydro-1,4-diazocin-5-one] |  | 50 µg/mL (≈ 169 µM) | 200 µg/mL (≈ 677 µM) | 100 µg/mL (≈ 338 µM) | 
39 | CCCCCCCCCCCCCCCCCCCCCC(=O)OCCN1CCN=CCCC1=O [Example 57, 4-behenoyloxyethyl-2,3,6,7-tetrahydro-1,4-diazocin-5-one] |  | 12.5 µg/mL (≈ 25.4 µM) | 100 µg/mL (≈ 203 µM) | 100 µg/mL (≈ 203 µM) | 
